This is an account of results in patent publication US10337071B2, “Oncogene NRF2” (National Cancer Center, priority 2008, dated 2019).

What all share (format): cell-based
Data set [1] deals with esophageal cancer cell lines with NRF2 gene abnormality (KYSE-50, KYSE-70, KYSE-180). The experiment in a line: Suppression of proliferation by rapamycin treatment, MTS assay. Conditions: rapamycin 1, 5, 10 nM, 72 hours. On the procedure: (§1) Suppression of proliferation by rapamycin treatment was examined for the esophageal cancer cell lines without NRF2 gene abnormality (KYSE-30, KYSE-140, KYSE-170, KYSE-270) and for the cell lines with NRF2 gene abnormality (KYSE-50, KYSE-70, KYSE-180). The 7 esophageal cancer cell lines were seeded onto 96 well plates at 5000 cells/well, and 0, 1, 5, and 10 nM of rapamycin were added. After incubated at 37 degrees C. for 72 hours, viable cells were counted based on the NADH activity (MTS assay, CellTiter 96 Aqueous One Solution Cell Proliferation Assay, Promega).
(In general: Tetrazolium assays rely on reduction of a dye to a coloured formazan, in cell work by metabolically active cells.)

The subject of data set [2] is head and neck cancer cell lines with NRF2 gene abnormality (HO-1-u-1). The data set is described as above. On the procedure:
as §1
(§2) In addition, growth suppression effect of rapamycin treatment to the lung cancer cell lines without NRF2 gene abnormality (SQ-5, QG-56) or with NRF2 gene abnormality (LK-2, EBC-1) and to the head and neck cancer cell lines without NRF2 gene abnormality (HO-1-N-1, HSC2) or with NRF2 gene abnormality (HO-1-u-1) were also examined by similar method for the above esophageal cancer cell lines.

Data set [3] has as its system lung cancer cell lines with NRF2 gene abnormality (LK-2, EBC-1). The description is as above. Here is the method:
as §1, §2

Data set [4] has as its system KYSE-180 esophageal cancer cell line (NRF2 gene mutation). In words: Growth suppression by dsRNA against NRF2, MTS assay. The conditions noted are these: KYSE-180, 72 hours, vs control dsRNA. Here is the method:
(§3) NRF2 gene expression was suppressed by dsRNA for the esophageal cancer cell lines that have NRF2 gene mutation (KYSE-50 and KYSE-180). Esophagus cancer cell lines were seeded into 96 well plates at 5000 cells/well, and control dsRNA (ON-TARGET plus Non-targeting Pool, Dharmacon, D-001810-10) or dsRNA against NRF2 (NRF2 dsRNA) (5′-[…]-3′ (SEQ ID NO 20) and 5′-p[…]-3′ (SEQ ID NO 21)) were introduced using Lipofectamine (Lipofectamine RNAiMax, Invitrogen). Then they were incubated at 37 degrees C. for 72 hours. Then, the number of viable cells was determined by a MTS assay for the NADH activity (CellTiter 96 Aqueous One Solution Cell Proliferation Assay, Promega).

The subject of data set [5] is KYSE-50 esophageal cancer cell line (NRF2 gene mutation). The description is as above. The conditions noted are these: KYSE-50, 72 hours, vs control dsRNA. Here is the method: as §3

In the case of `CO[C@H]1C[C@@H]2CC[C@@H](C)[C@@](O)(O2)C(=O)C(=O)N2CCCC[C@H]2C(=O)O[C@H]([C@H](C)C[C@@H]2CC[C@@H](O)[C@H](OC)C2)CC(=O)[C@H](C)/C=C(\C)[C@@H](O)[C@@H](OC)C(=O)[C@H](C)C[C@H](C)/C=C/C=C/C=C/1C` [rapamycin], the “cell proliferation, ratio of cell counts, % of the control (0 nM = 100%)” value was “about 70%” in data set [1], “about 70%” in data set [2] and 62-70% in data set [3].
Turning to “NRF2 dsRNA: dsRNA against NRF2: 5'-UAAAGUGGCUGCUCAGAAUUU-3' (SEQ ID NO 20) and 5'-pAUUCUGAGCAGCCACUUUAUU-3' (SEQ ID NO 21) (second strand carries 5' phosphate, otherwise chemistry not given here, further chemistry not given here)”, the “suppressive effect on proliferation compared with the control” value in data set [4] was determined as 38%; in data set [5] it was 26%.
